Source: US20260297092A1, “PYRAZOLOPYRIMIDINE DERIVATIVES AS INHIBITORS OF NLRP3” (Takeda Pharmaceutical Company Limited, priority 2023, published 2026)

Tested on: NLRP3 inflammasome (IL-1β production in THP-1 cells)
Assay: IL-1β TR-FRET Assay (percentage of inhibition at 300 nM, 6 μM or 10 μM)
Format: cell-based, human
Conditions: Homo sapiens, LPS priming, ATP activation; for inhibition at 0.3 µM: THP-1, 300 nM, read-out: IL-1β inhibitory rate at 300 nM (%); for inhibition at 6 µM: THP-1, 6 μM, read-out: IL-1β inhibitory rate at 6 μM (%); for inhibition at 10 µM: THP-1, 10 μM, read-out: IL-1β inhibitory rate at 10 μM (%)
Method: The biological activity of the compound of Formula 1 with respect to NLRP3 was determined using the following in vitro method.
IL-1β TR-FRET Assay (reported as percentage of inhibition at 300 nM, 6 μM or 10 μM)
Monocytic THP-1 cells (ATCC: TIB-202) were maintained in accordance with the provider's instructions in RPMI media (Life Technologies, Cat #A10491-01); RPMI was supplemented with 10% heat inactivated fetal bovine serum (Corning, Cat #35-010-CV). The cells were differentiated into macrophages by the addition of 25 ng/mL IFN-γ (PeproTech, Cat #AF-300-02-100UG) for 24 hours at 37° C./5% CO2. Media was exchanged with fresh media with no FBS, and the cells were treated with 50 ng/mL LPS (priming step) (LPS-EK: Invivogen, Cat #tlrl-peklps). The cells were plated at 20,000 cells per well in 384-well flat-bottom cell culture plates (FALCON, Cat #353962) and were incubated for 24 hours at 37° C./5% CO2. Compounds were serially diluted (half log or 5-fold dilutions) with DMSO and were finally diluted with Media with no FBS. The compounds were added to the cells in 384-well plates (added in 1:3) and then the plates were incubated for 30 minutes at 37° C./5% CO2. The NLRP3 inflammasome was activated with the addition of 20 mM ATP (Sigma Cat #A3377-25G) and the cells were incubated for 2 hours at 37° C./5% CO2. At the end of the incubation period, 30 μL supernatant was transferred to another 384-well plate and mixed on a plate shaker for 1 minute. The supernatant was mixed with HTRF Antibody (Human IL1 beta kit, Cisbio, 62HIL1BPEH) in assay plates (Greiner Bio-One, Cat #784075) and the assay plates were incubated in shading box at room temperature for 16-24 hours. HTRF signal was measured by EnVision (Perkinelmer) in accordance with the manufacturer's instructions.
The percentage of inhibition at 300 nM, 6 μM or 10 μM in the IL-1βTR-FRET assay was calculated by the following formula: Percentage of inhibition=[1−(HTRF signaltest−HTRF signalLow)/(HTRF signalHigh−HTRF signalLow)]*100, where HTRF signaltest is the HTRF signal in the well to which test compound is added, HTRF signalLow is the HTRF signal in the well to which 3 μM MCC-950 is added, and the HTRF signalHigh is the HTRF signal in the well to which DMSO is added.

CCOc1nc2nn(-c3c(F)cc(C4CC4)cc3C(O)C(F)F)cc2c(=O)[nH]1 (racemic) [Example 177, 2-[4-cyclopropyl-2-(2,2-difluoro-1-hydroxyethyl)-6-fluorophenyl]-6-ethoxy-2,5-dihydro-4H-pyrazolo[3,4-d]pyrimidin-4-one]
inhibition at 0.3 µM: 108%

CCc1nc2nn(-c3ccc(C4CC4)c(C(F)F)c3F)cc2c(=O)[nH]1 [Example 281, 2-[4-cyclopropyl-3-(difluoromethyl)-2-fluorophenyl]-6-ethyl-2,5-dihydro-4H-pyrazolo[3,4-d]pyrimidin-4-one]
inhibition at 6 µM: 98%

Cc1cc(C2CC2)cc(C)c1-n1cc2c(=O)[nH]c(CC(C)(C)O)nc2n1 [Example 181, 2-(4-cyclopropyl-2,6-dimethylphenyl)-6-(2-hydroxy-2-methylpropyl)-2,5-dihydro-4H-pyrazolo[3,4-d]pyrimidin-4-one]
inhibition at 0.3 µM: 103%

CCOc1nc2nn(-c3c(F)cc(C4(F)CC4)cc3Br)cc2c(=O)[nH]1 [Example 178, 2-[2-bromo-6-fluoro-4-(1-fluorocyclopropyl)phenyl]-6-ethoxy-2,5-dihydro-4H-pyrazolo[3,4-d]pyrimidin-4-one]
inhibition at 0.3 µM: 101%

Cc1cc(C2CC2)cc(C(F)F)c1-n1cc2c(=O)[nH]c([C@@H]3COCCO3)nc2n1 [Example 326, 2-[4-cyclopropyl-2-(difluoromethyl)-6-methylphenyl]-6-[(2S)-1,4-dioxan-2-yl]-2,5-dihydro-4H-pyrazolo[3,4-d]pyrimidin-4-one or 2-[4-cyclopropyl-2-(difluoromethyl)-6-methylphenyl]-6-[(2R)-1,4-dioxan-2-yl]-2,5-dihydro-4H-pyrazolo[3,4-d]pyrimidin-4-one]
inhibition at 10 µM: 111%

CO[C@H]1C[C@@H](Oc2nc3nn(-c4ccc(C)cc4C)cc3c(=O)[nH]2)C1 [Example 243, 2-(2,4-dimethylphenyl)-6-{[(1s,3s)-3-methoxycyclobutyl]oxy}-2,5-dihydro-4H-pyrazolo[3,4-d]pyrimidin-4-one]
inhibition at 6 µM: 100%

Cc1cc(C2CC2)cc(C)c1-n1cc2c(=O)[nH]c(C3=CCOCC3)nc2n1 [Example 307, 2-(4-cyclopropyl-2,6-dimethylphenyl)-6-(3,6-dihydro-2H-pyran-4-yl)-2,5-dihydro-4H-pyrazolo[3,4-d]pyrimidin-4-one]
inhibition at 6 µM: 108%

Cc1cc(Br)cc(C(F)F)c1-n1cc2c(=O)[nH]c(COC(F)F)nc2n1 [Example 279, 2-[4-bromo-2-(difluoromethyl)-6-methylphenyl]-6-[(difluoromethoxy)methyl]-2,5-dihydro-4H-pyrazolo[3,4-d]pyrimidin-4-one]
inhibition at 6 µM: 100%

Cc1cc(C2CC2)cc(C)c1-n1cc2c(=O)[nH]c(CO)nc2n1 [Example 304, 2-(4-cyclopropyl-2,6-dimethylphenyl)-6-(hydroxymethyl)-2,5-dihydro-4H-pyrazolo[3,4-d]pyrimidin-4-one]
inhibition at 6 µM: 103%

Cc1cc(C2CC2)cc(C)c1-n1cc2c(=O)[nH]c([C@H]3C[C@H](F)C3)nc2n1 [Example 255, 2-(4-cyclopropyl-2,6-dimethylphenyl)-6-[(1r,3r)-3-fluorocyclobutyl]-2,5-dihydro-4H-pyrazolo [3,4-d]pyrimidin-4-one]
inhibition at 6 µM: 98%

Cc1cc(C2CC2)cc(C)c1-n1cc2c(=O)[nH]c(-c3cc4n(n3)CCO4)nc2n1 [Example 270, 2-(4-cyclopropyl-2,6-dimethylphenyl)-6-(2,3-dihydropyrazolo[5,1-b][1,3]oxazol-6-yl)-2,5-dihydro-4H-pyrazolo[3,4-d]pyrimidin-4-one]
inhibition at 6 µM: 98%

Cc1cc(C2CC2)cc(C)c1-n1cc2c(=O)[nH]c(C3(C)COC3)nc2n1 [Example 315, 2-(4-cyclopropyl-2,6-dimethylphenyl)-6-(3-methyloxetan-3-yl)-2,5-dihydro-4H-pyrazolo [3,4-d]pyrimidin-4-one]
inhibition at 6 µM: 101%

CCOc1nc2nn(-c3c(C)cc(C4CC4)nc3C)cc2c(=O)[nH]1 [Example 174, 2-(6-cyclopropyl-2,4-dimethylpyridin-3-yl)-6-ethoxy-2,5-dihydro-4H-pyrazolo[3,4-d]pyrimidin-4-one]
inhibition at 0.3 µM: 108%

O=c1[nH]c(C2COCCO2)nc2nn(-c3c(F)cc(C4CC4)cc3C(F)F)cc12 (racemic) [Example 305, 2-[4-cyclopropyl-2-(difluoromethyl)-6-fluorophenyl]-6-(1,4-dioxan-2-yl)-2,5-dihydro-4H-pyrazolo[3,4-d]pyrimidin-4-one]
inhibition at 6 µM: 103%

CCOC(Cc1nc2nn(-c3c(C)cc(C4CC4)cc3C)cc2c(=O)[nH]1)OCC [Example 234, 2-(4-cyclopropyl-2,6-dimethylphenyl)-6-(2,2-diethoxyethyl)-2,5-dihydro-4H-pyrazolo[3,4-d]pyrimidin-4-one]
inhibition at 6 µM: 90%

CCOc1nc2nn(-c3c(F)cc(C4CC4)cc3CC(F)(F)F)cc2c(=O)[nH]1 [Example 206, 2-[4-cyclopropyl-2-fluoro-6-(2,2,2-trifluoroethyl)phenyl]-6-ethoxy-2,5-dihydro-4H-pyrazolo[3,4-d]pyrimidin-4-one]
inhibition at 0.3 µM: 97%

Cc1cc(C2CC2)cc(C)c1-n1cc2c(=O)[nH]c(-c3cnn(C)c3)nc2n1 [Example 217, 2-(4-cyclopropyl-2,6-dimethylphenyl)-6-(1-methyl-1H-pyrazol-4-yl)-2,5-dihydro-4H-pyrazolo[3,4-d]pyrimidin-4-one]
inhibition at 0.3 µM: 108%

Cc1cc(Br)cc(C)c1-n1cc2c(=O)[nH]c([C@H]3CC3(F)F)nc2n1 [Example 189, 2-(4-bromo-2,6-dimethylphenyl)-6-(2,2-difluorocyclopropyl)-2,5-dihydro-4H-pyrazolo[3,4-d]pyrimidin-4-one]
inhibition at 0.3 µM: 99%

O=c1[nH]c(COC(F)F)nc2nn(-c3ccc(Br)cc3C(F)F)cc12 [Example 267, 2-[4-bromo-2-(difluoromethyl)phenyl]-6-[(difluoromethoxy)methyl]-2,5-dihydro-4H-pyrazolo[3,4-d]pyrimidin-4-one]
inhibition at 6 µM: 101%

Cc1cc(C2(F)CC2)cc(C)c1-n1cc2c(=O)[nH]c(-c3ccn(C)n3)nc2n1 [Example 292, 2-[4-(1-fluorocyclopropyl)-2,6-dimethylphenyl]-6-(1-methyl-1H-pyrazol-3-yl)-2,5-dihydro-4H-pyrazolo[3,4-d]pyrimidin-4-one]
inhibition at 6 µM: 101%

Cc1ccc(-n2cc3c(=O)[nH]c(O[C@H]4C[C@H](C#N)C4)nc3n2)c(C)c1 [Example 219, 3-{[2-(2,4-dimethylphenyl)-4-oxo-4,5-dihydro-2H-pyrazolo[3,4-d]pyrimidin-6-yl]oxy}cyclobutane-1-carbonitrile]
inhibition at 0.3 µM: 96%

CCOc1nc2nn(-c3c(Br)cc(Br)cc3C(F)F)cc2c(=O)[nH]1 [Example 251, 2-[2,4-dibromo-6-(difluoromethyl)phenyl]-6-ethoxy-2,5-dihydro-4H-pyrazolo[3,4-d]pyrimidin-4-one]
inhibition at 6 µM: 105%

Cc1cc(Br)cc(C)c1-n1cc2c(=O)[nH]c([C@@H](C)C(=O)O)nc2n1 [Example 170, 2-[2-(4-bromo-2,6-dimethylphenyl)-4-oxo-4,5-dihydro-2H-pyrazolo [3,4-d]pyrimidin-6-yl]propanoic acid]
inhibition at 10 µM: 136%

Cc1cc(C2CC2)cc(C)c1-n1cc2c(=O)[nH]c(-c3cn4c(n3)COCC4)nc2n1 [Example 264, 2-(4-cyclopropyl-2,6-dimethylphenyl)-6-(5,6-dihydro-8H-imidazo[2,1-c][1,4]oxazin-2-yl)-2,5-dihydro-4H-pyrazolo[3,4-d]pyrimidin-4-one]
inhibition at 6 µM: 100%
